Tests used:
ADMA = conditions: diabetic patients; fourteen-day study (Hanrahan et al 2018); cited from earlier work
Pparα = experiment: B-DNA gene expression assay, DIO mouse model, WAT; type: in vivo; conditions: DIO mice; 6 mg/kg in diet, 28 days; FIG. 2B (eWAT)
Procedure: (§1) Animals were fed either chow or high fat diet (Research Diets). The lean mice were maintained on a standard chow diet. The obese mice were given 60% high fat diet (HFD) starting at 6 weeks of age. All animals were allowed free access to drinking water and chow. The study began when the mice were 12 weeks of age and concluded after 4 weeks (16 weeks of age). The obese control group was maintained on HFD. Groups receiving compound treatments were fed with HFD containing 90 mg Compound A/kg diet (an approximate dose of 6 mg/kg) or 45 mg vericiguat/kg diet (an approximate dose of 3 mg/kg). Body weights were determined twice weekly and food intake was measured daily for 28 days. […]
(§2) For gene expression analysis, 5-10 mg of tissue samples from ZSF1 rat liver, CCl4 rat liver, or DIO mice brain hypothalamus, or approximately 50 mg of white adipose tissue (WAT) from ZSF1 rat were homogenized and processed using QuantiGene sample processing kit according to manufacturer's instruction (Affymatrix, Fremont, CA). Gene expression in the tissue samples was measured using a QuantiGene 2.0 Plex Assay kit (Affymetrix) and multiplex gene panel specifically designed for each animal model following manufacture instructions. Analytes were measured using Luminex MAGPIX™ (Bio-Rad, Hercules, CA). […]

AMPK = experiment: B-DNA gene expression assay, DIO mouse model, WAT; type: in vivo; conditions: DIO mice; 6 mg/kg in diet, 28 days; FIG. 2A (AMPKα1, eWAT)
Procedure: as §1, §2

Pparγ = experiment: B-DNA gene expression assay, carbon tetrachloride (CCl4) rat model, liver; type: in vivo, Sprague-Dawley rat; conditions: CCl4 rats; 3 mg/kg; FIG. 2C
Procedure: Male, Sprague-Dawley rat were dosed with 0.25 ml/kg of CCl4 PO three times a week diluted in corn oil for the duration of the study (8 weeks). Control animals received an equivalent volume of corn oil. Two weeks after beginning the administration of CCl4, animals were given a chow admixture containing Compound A calculated to achieve doses of 3 mg/kg/day.
For gene expression analysis, 5-10 mg of tissue samples from ZSF1 rat liver, CCl4 rat liver, or DIO mice brain hypothalamus, or approximately 50 mg of white adipose tissue (WAT) from ZSF1 rat were homogenized and processed using QuantiGene sample processing kit according to manufacturer's instruction (Affymatrix, Fremont, CA). Gene expression in the tissue samples was measured using a QuantiGene 2.0 Plex Assay kit (Affymetrix) and multiplex gene panel specifically designed for each animal model following manufacture instructions. Analytes were measured using Luminex MAGPIX™ (Bio-Rad, Hercules, CA). Median fluorescence intensity (MFI) was generated for each gene target and normalized to the geometric mean expression of selected housekeeping genes, which were chosen to match the target transcript abundance.

PGC1α [1] = experiment: B-DNA gene expression assay, ZSF1 rat model; type: in vivo; conditions: ZSF1 obese rats
Procedure: There are 4 groups of animals in the study design: • 1. ZSF1 Lean—Vehicle (n=6) • 2. ZSF1 Obese—Vehicle (n=9) • 3. ZSF1 Obese—Compound A 10 mg/kg/day (n=9) • 4. […]
Animals in Group 4 was placed on drinking water containing enalapril and kept on Purina 5008 rodent chow (C13000). Animals in Groups 1-3 were kept on Purina 5008 rodent chow and drinking water. Ten days after the initiation of enalapril treatment, […] received Compound A at 10 mg/kg/day, respectively for 11 weeks (monotherapy). Beginning on day 10, animals in Groups 3 and 4 received Compound A at 10 mg/kg/day in addition to enalapril for an additional 11 weeks (combination therapy). […]
as §2

[2] = test system: LHON patient cells GM11605; experiment: ATP assay (ATPlite); type: cell-based, human; conditions: compound alone or in combination with DETA, 24 hrs
Procedure: (§3) Lymphoblast cells of LHON patient (GM11605 and GM10742) and Leigh patient (GM13740) were purchased from Coriell institute and cultured according to recommended growth condition from the vendor. The culture medium RPMI-1640 (ATCC, catalog #30-2006) containing 15% fetal bovine serum (Corning catalog #35-015-CV).
(§4) Corielll cells were plated on 96-well V-bottom culture plate (Corning Catalog #3894) at density of 200,000 cells per well in 90 ul RPMI-1640 media containing 2% FBS. Three hours later, 10 μL per well of 10× compounds (at its final conc.) diluted in RPMI-1640 media containing 2% FBS were added to the cells and incubated at 37 C for 24 hrs. The next day, ATP levels in the cells were measure using ATPlite kit (PerkinElmer Cat #6016943)

[3] = test system: LHON patient cells GM10742; experiment: ATP assay (ATPlite); type: cell-based, human; conditions: compound alone or in combination with DETA, 24 hrs
Procedure: as §3, §4

[4] = test system: Leigh patient cells GM13740; experiment: ATP assay (ATPlite); type: cell-based, human; conditions: compound alone or in combination with DETA, 24 hrs
Procedure: as §3, §4

PGC1α [5] = experiment: B-DNA gene expression assay, diet-induced obesity (DIO) mouse model, hypothalamus; type: in vivo; conditions: DIO mice, compound in high fat diet; FIG. 1C
Procedure: as §1, §2

DDAH2 = experiment: bDNA gene expression assay in patient cells; type: cell-based, human; conditions: in the presence of DETA
Procedure: as §3
(§5) Coriell cells were plated on 96-well V-bottom culture plate (Corning Catalog #3894) at density of 200,000 cells per well in 90 ul RPMI-1640 media containing 2% FBS. Three hours later, 10 μL per well of 10× compounds (at its final conc.) diluted in RPMI-1640 media containing 2% FBS were added to the cells and incubated at 37 C for 24 hrs. The next day, cells were spun down by centrifuging in a benchtop centrifuge (Beckman Model #TJ-25) at 300 g for 5 min, media was removed and cell pellets were lysed in 100 μL/well with lysis mixture provided by QuantiGene sample processing kit (Affymetrix catalog #QS010). Gene expression in the cell lysates was measured using a QuantiGene 2.0 Plex Assay kit (Affymetrix catalog #QP1013) and multiplex gene panel (Thermo/Fisher, plex set #QGP-150-M19022101) according to manufacturer's protocols. Analytes were measured using Luminex MAGPIX™ (Bio-Rad, Hercules, CA). Median fluorescence intensity (MFI) was generated for each gene target and normalized to the geometric mean expression of three housekeeping genes (Hprt1, Ppib and Polr2a), which were chosen to match the target transcript abundance.

TFAM = experiment: bDNA gene expression assay in patient cells; type: cell-based, human; conditions: in the presence of DETA
Procedure: as §3, §5

sGC = target: T1, sGC (Homo sapiens, UniProt Q02153); experiment: cGMP measurement in mitochondrial disease patient lymphoblast cells; type: cell-based; conditions: in combination with DETA
T1 construct: confirming functional expression of sGC in these patient cells; host or cells: human LHON and Leigh patient lymphoblast cells
T1 sequence (Q02153 1-619): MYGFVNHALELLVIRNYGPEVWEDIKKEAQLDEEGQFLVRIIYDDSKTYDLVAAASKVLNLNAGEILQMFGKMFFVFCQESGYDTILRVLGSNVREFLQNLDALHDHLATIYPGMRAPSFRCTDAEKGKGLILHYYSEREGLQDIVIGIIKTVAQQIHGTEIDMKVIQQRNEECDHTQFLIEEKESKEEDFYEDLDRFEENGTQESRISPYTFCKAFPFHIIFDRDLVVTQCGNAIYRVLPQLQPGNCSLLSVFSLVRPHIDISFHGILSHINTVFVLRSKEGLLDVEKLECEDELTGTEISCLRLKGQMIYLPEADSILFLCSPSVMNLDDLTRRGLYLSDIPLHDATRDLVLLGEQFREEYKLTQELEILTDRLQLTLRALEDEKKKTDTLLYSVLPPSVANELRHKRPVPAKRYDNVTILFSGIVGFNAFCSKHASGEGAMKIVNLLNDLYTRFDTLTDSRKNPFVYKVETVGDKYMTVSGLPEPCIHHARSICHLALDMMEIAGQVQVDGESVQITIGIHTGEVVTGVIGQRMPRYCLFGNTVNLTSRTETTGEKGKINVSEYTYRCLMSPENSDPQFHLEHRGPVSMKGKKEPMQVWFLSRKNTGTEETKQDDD
T1 sequence (Q02108 1-690 partner): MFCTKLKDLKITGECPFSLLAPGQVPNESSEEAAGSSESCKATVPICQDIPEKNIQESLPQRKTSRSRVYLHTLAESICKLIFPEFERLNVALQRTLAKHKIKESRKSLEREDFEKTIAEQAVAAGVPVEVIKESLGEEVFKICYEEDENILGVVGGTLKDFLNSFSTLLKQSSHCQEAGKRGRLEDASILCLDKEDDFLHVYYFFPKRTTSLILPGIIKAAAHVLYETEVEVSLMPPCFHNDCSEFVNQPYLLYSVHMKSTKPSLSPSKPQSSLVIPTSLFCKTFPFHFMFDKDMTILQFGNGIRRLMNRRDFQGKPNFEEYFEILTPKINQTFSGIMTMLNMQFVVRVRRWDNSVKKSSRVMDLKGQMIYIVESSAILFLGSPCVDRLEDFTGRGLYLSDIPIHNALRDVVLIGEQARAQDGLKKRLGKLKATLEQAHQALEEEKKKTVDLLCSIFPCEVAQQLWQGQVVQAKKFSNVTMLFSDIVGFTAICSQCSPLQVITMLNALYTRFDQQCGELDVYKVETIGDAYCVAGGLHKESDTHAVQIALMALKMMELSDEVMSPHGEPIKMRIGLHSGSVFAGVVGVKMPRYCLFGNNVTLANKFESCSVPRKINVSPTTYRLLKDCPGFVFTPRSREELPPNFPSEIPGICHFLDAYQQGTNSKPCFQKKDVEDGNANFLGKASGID
Procedure: as §3
On the day of the assay, Coriell cells were plated on 96-well V-bottom culture plate (Corning Catalog #3894) at density of 200,000 cells per well in 100 ul culture media. Right before the assay, cells were spun down by centrifuging in a benchtop centrifuge (Beckman Model #TJ-25) at 300 g for 5 min, media was removed and cell pellets were carefully washed once with 200 μL of HBSS containing Ca^2+ and Mg^2+ (Gibco catalog #14025-075). The cells were spun down, then 90 μL per well of HBSS containing 0.5 mM IBMX was added to the cells and were incubated at 37° C. for 15 min. Then 10 μL per well of 10× compounds (at its final conc.) diluted in HBSS solution containing IBMX plus different concentration of NO donor, DETA (final concentration of 0, 10 μM, 30 μM) was added to the cells and incubated at 37° C. for another 20 min. Cell pellets were spun down and lysed with 0.1 N HCl (100 ul/well). cGMP was measured using a cGMP Biotrak EIA kit (GE cat no. RPN226). cGMP concentrations of the samples were calculated from the standard curve.

In the case of `OC(CNc1nc(-c2cc(-c3ccon3)n(Cc3ccccc3F)n2)ncc1F)(C(F)(F)F)C(F)(F)F` [Compound A], the “levels of circulating ADMA” value (ADMA) is given as “reduced”, the “gene expression level of Pparα in WAT” value (Pparα) is given as “increased” and the “gene expression level of AMPK in WAT” value (AMPK) is given as “increased”. For the same compound, the “gene expression level of Pparγ in liver” value (Pparγ) was “increased” and the “gene expression level of PGC1α in white adipose tissue (WAT)” value (PGC1α [1]; 10 mg/kg in combination with enalapril at 3 mg/kg, FIG. 1A) was “increased”.

With `Fc1ccccc1Cc1nc(-c2nc(C(F)(F)F)n[nH]2)cn2ccnc12` [Compound B] the “ATP production / ATP level” value [2] was “increase”, the “ATP production / ATP level” value [3] was “increase” and the “ATP production / ATP level” value [4] was “increase”. The “PGC1α expression in hypothalamus” value (PGC1α [5]) was “increased PGC1α expression significantly”, the “DDAH2 gene expression level” value (DDAH2; LHON patient cells (GM11605), FIG. 5B) was “increased” and the “DDAH2 gene expression level” value (DDAH2; Leigh patient cells (GM13740), FIG. 6B) was “increased”. The “TFAM gene expression level” value (TFAM; LHON patient cells (GM11605), FIG. 5A) was “increased” and the “TFAM gene expression level” value (TFAM; Leigh patient cells (GM13740), FIG. 6A) was “increased”.

For `NC(=O)[C@](O)(CNc1nc(-c2cc(-c3ccon3)n(Cc3ccccc3F)n2)ncc1F)C(F)(F)F` [Compound D], the “ATP production / ATP level” value [4] was “increased ATP levels significantly” and the “gene expression level of PGC1α in liver” value (PGC1α [1]; 30 mg/kg in combination with enalapril at 3 mg/kg, FIG. 1B) was “increased”.

For `Fc1ccccc1Cn1nc(-c2nc(C(F)(F)F)n[nH]2)c2cccnc21` [Compound E], the “ATP production / ATP level” value [2] was “significantly increase”, the “ATP production / ATP level” value [4] was “significantly increase” and the cGMP formation (sGC; LHON patient cells GM10742, FIG. 3B) was “significantly activated”. For the same compound, the cGMP formation (sGC; LHON patient cells GM11605, FIG. 3A) was “significantly activated” and the cGMP formation (sGC; Leigh patient cells GM13740, FIG. 3C) was “significantly activated”.

Reference: patent US12220414B2, “Use of sGC stimulators for the treatment of mitochondrial disorders” (Tisento Therapeutics Inc., priority 2018, dated 2025)
